Assays:
[1] = biological target: T1, HER2 (Homo sapiens, UniProt P04626); test: HER2 kinase screening assay (33P-ATP FlashPlate); type: biochemical; details: GST-HIS6 HER-2 aa 679 to 1255; 10 μM ATP; 1 hr at 30° C;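 also: Biotin-poly(GT) 4:1 peptide captured on streptavidin FlashPlate, 33P transfer from γ-ATP read by scintillation counting, lower incorporation means inhibition, 1% DMSO final, 100 µL reaction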
T1 construct: GST (Glutathione-S-Transferase) (N); HIS6 (N); thrombin cleavage site (N); purchased Proqinase, Freiburg, Germany
T1 sequence (P04626 679-1255): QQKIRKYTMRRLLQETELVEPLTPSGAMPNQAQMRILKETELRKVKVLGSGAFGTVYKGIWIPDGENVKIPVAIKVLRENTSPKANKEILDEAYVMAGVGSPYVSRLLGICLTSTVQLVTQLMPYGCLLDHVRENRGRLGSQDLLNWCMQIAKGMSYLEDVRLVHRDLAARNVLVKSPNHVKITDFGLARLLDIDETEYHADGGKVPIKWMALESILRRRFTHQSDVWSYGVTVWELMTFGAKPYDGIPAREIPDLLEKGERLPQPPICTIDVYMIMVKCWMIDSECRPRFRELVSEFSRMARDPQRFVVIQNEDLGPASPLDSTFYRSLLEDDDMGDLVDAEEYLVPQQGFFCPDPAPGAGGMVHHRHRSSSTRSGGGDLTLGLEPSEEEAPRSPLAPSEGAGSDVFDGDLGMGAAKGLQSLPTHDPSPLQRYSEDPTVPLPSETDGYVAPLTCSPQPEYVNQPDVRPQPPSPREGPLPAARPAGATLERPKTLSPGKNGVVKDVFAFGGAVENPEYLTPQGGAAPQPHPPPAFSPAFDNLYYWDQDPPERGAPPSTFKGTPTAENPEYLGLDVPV

[2] = test system: HCT-116 colon carcinoma; test: Cell Proliferation Inhibition Assay (14C-thymidine incorporation), HCT-116; type: cell-based; details: Homo sapiens;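 also: proliferation measured as methyl 14C-thymidine uptake into new DNA, counted in 96-well scintillating microplates, compared with DMSO-only control wells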
[3] = test system: HeLa cervical adenocarcinoma; test: Cell Proliferation Inhibition Assay (14C-thymidine incorporation), HeLa; type: cell-based; details: Homo sapiens, HeLa cells;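 also: test compound in DMSO added to cells seeded in scintillating 96-well plates, DMSO-only wells as control, uptake of methyl 14C-thymidine into new DNA counted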
[4] = test system: A375 malignant melanoma; test: Cell Proliferation Inhibition Assay (14C-thymidine incorporation), A375; type: cell-based; details: Homo sapiens, A-375, A375 cells;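 also: proliferation measured by radiolabelled thymidine uptake into new DNA, counted in scintillating 96-well plates, compound-treated wells compared with DMSO-only control wells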
[5] = biological target: T2, RET (Homo sapiens, UniProt P07949); test: RET kinase screening assay (33P-ATP FlashPlate); type: biochemical; details: human RET kinase domain; 10 μM ATP; 1 hr at 30° C;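 also: biotinylated peptide substrate captured on streptavidin FlashPlate, 33P phosphate transfer read by scintillation counting, 1% DMSO, lower incorporation means inhibition, percent relative to per-plate maximum and minimum signals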
T2 construct: polyhistidine (N)
T2 sequence (P07949 658-1114 limits assumed): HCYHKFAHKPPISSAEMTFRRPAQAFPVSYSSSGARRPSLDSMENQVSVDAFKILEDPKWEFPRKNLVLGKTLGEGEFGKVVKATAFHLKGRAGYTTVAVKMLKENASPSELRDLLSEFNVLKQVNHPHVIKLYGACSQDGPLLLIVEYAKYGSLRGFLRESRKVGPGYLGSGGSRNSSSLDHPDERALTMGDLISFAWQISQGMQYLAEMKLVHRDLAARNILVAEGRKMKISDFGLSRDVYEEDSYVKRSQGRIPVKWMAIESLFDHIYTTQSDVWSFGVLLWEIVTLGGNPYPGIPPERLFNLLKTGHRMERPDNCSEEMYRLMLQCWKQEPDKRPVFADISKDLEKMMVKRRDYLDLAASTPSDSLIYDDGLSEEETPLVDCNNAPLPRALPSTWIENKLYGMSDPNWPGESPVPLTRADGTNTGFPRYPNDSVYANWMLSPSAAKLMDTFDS

[6] = biological target: T3, VEGF-R2 (Rattus norvegicus, UniProt O08775); test: VEGF-R2 kinase screening assay (33P-ATP FlashPlate); type: biochemical; details: rat VEGF-R2 kinase domain; 10 μM ATP; 1 hr at 30° C;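 also: Read-out is ³³P incorporation from ³³P-γ-ATP into biotinylated peptide substrate captured on streptavidin FlashPlate, counted by scintillation, 1% DMSO final, inhibition scaled between per-plate maximum and minimum signals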
T3 construct: polyhistidine (N)
T3 sequence (O08775 786-1343): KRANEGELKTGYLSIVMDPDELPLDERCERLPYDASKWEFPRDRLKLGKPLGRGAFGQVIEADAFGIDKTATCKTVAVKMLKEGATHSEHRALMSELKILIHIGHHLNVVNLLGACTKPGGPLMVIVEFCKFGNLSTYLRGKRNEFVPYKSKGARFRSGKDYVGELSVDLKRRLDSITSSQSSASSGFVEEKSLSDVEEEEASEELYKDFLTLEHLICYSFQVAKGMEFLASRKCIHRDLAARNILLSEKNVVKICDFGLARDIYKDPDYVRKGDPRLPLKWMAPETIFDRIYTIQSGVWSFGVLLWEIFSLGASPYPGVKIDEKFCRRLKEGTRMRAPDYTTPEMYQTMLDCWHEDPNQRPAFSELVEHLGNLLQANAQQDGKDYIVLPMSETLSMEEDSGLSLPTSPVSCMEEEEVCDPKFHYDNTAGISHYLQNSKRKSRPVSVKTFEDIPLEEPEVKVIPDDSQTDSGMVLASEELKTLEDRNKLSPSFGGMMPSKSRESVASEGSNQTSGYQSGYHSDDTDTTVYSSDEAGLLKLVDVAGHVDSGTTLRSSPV

[7] = biological target: T4, CDK1 (Homo sapiens, UniProt P06493); test: CDK-1 kinase screening assay (33P-ATP FlashPlate); type: biochemical; details: human CDK1 with cyclin B; 10 μM ATP; 1 hr at 30° C
T4 construct: purchased New England Biolabs, Beverly, Mass; 6020; host or cells: insect cells
T4 sequence (P06493 whole entry): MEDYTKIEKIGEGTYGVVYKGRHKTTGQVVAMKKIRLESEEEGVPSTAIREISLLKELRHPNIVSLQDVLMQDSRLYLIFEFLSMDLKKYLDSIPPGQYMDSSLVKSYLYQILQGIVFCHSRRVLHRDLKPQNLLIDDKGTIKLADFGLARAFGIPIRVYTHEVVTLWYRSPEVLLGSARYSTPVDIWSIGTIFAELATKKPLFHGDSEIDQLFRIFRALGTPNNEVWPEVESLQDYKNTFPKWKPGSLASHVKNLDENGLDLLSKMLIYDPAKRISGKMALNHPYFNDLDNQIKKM
T4 sequence (P14635 whole entry partner): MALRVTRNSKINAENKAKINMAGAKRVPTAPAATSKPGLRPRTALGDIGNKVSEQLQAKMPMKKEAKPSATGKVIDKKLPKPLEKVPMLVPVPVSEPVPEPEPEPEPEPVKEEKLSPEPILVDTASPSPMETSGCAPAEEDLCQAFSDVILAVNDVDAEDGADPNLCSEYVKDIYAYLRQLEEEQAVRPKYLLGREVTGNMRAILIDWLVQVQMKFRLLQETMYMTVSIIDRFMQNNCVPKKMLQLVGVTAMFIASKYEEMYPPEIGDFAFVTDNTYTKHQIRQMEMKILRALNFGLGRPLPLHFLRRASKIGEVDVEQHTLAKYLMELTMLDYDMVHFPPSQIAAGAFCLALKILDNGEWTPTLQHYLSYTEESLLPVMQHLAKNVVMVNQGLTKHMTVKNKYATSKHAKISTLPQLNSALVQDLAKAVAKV

[8] = biological target: T5, Aurora-A (Mus musculus, UniProt P97477); test: Aurora-A kinase screening assay (33P-ATP FlashPlate); type: biochemical; details: 10 μM ATP, 1 hr at 30° C;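 also: His-tagged mouse Aurora-A phosphorylating a biotinylated peptide captured on streptavidin plates, read as 33P uptake by scintillation counting, 1% DMSO, inhibition scaled between per-plate maximum and minimum signals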
T5 construct: polyhistidine (N)
T5 sequence (P97477 1-395): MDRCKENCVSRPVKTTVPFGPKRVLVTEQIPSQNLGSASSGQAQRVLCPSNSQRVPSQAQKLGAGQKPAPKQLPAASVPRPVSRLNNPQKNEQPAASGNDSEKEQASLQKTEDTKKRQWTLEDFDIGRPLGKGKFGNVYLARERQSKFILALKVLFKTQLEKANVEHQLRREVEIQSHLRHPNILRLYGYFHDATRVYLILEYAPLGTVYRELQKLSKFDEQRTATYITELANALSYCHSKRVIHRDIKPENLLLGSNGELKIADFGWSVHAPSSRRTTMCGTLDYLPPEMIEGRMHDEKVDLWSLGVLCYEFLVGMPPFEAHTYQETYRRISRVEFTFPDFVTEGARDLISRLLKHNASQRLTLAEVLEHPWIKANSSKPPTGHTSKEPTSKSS

Row | SMILES | IC50 [1] [µM] | IC50 ([2]; HCT-116, HCT-116 cells) [µM] | IC50 ([3]; HeLa) [µM] | IC50 [4] [µM] | IC50 [5] [µM] | IC50 [6] [µM] | IC50 [7] [µM] | IC50 [8] [µM] | IC50 ([2]; HCT-116 cells) [µM] | IC50 [3] [µM]
1 | O=C(NC1CCCC1)c1cccc2[nH]c(-c3n[nH]c4ncc(-c5cncc6ccccc56)cc34)nc12 [Cpd 27, 2-(5-isoquinolin-4-yl-1H-pyrazolo[3,4-b]pyridin-3-yl)-1H-benzoimidazole-4-carboxylic acid cyclopentylamide] | > 10 | 0.0787 | 0.163 | 0.0752 | > 1 | 1.04 | 0.0317 | > 1 | – | –
2 | CN1CCC(NC(=O)c2cccc3[nH]c(-c4n[nH]c5ncc(-c6cncc7ccccc67)cc45)nc23)CC1 [Cpd 28, 2-(5-isoquinolin-4-yl-1H-pyrazolo[3,4-b]pyridin-3-yl)-1H-benzoimidazole-4-carboxylic acid (1-methyl-piperidin-4-yl)-amide] | > 10 | 4.99 | 26.9 | 5.62 | > 100 | > 100 | 0.724 | > 10 | – | –
3 | O=C(NC1CCC(O)CC1)c1cccc2[nH]c(-c3n[nH]c4ncc(-c5cncc6ccccc56)cc34)nc12 (stereo not shown) [Cpd 29, 2-(5-isoquinolin-4-yl-1H-pyrazolo[3,4-b]pyridin-3-yl)-1H-benzoimidazole-4-carboxylic acid (4-hydroxy-cyclohexyl)-amide] | > 100 | 0.255 | 0.205 | 0.0697 | ~1 | 0.232 | 0.0116 | ~1 | – | –
4 | CC(C)OCc1cccc2[nH]c(-c3n[nH]c4ncc(-c5cncc6ccccc56)cc34)nc12 [Cpd 32, 4-[3-(4-isopropoxymethyl-1H-benzoimidazol-2-yl)-1H-pyrazolo[3,4-b]pyridin-5-yl]-isoquinoline] | > 100 | – | – | 0.905 | > 100 | ~0.1 | 0.0987 | > 1 | 2.89 | 2.14
5 | COCc1cccc2[nH]c(-c3n[nH]c4ncc(-c5ccc(S(N)(=O)=O)cc5)cc34)nc12 [Cpd 36, 4-[3-(4-methoxymethyl-1H-benzoimidazol-2-yl)-1H-pyrazolo[3,4-b]pyridin-5-yl]benzenesulfonamide] | > 100 | 0.0434 | 1.43 | 0.212 | > 10 | 0.436 | 0.546 | > 1 | – | –
6 | COCc1cccc2[nH]c(-c3n[nH]c4ncc(-c5cn(S(=O)(=O)c6ccccc6)c6ccccc56)cc34)nc12 [Cpd 38, 5-(1-benzenesulfonyl-1H-indol-3-yl)-3-(4-methoxymethyl-1H-benzoimidazol-2-yl)-1H-pyrazolo[3,4-b]pyridine] | > 100 | 0.0394 | 1.9 | 0.0568 | > 100 | > 1 | > 10 | ~100 | – | –
7 | COCc1cccc2[nH]c(-c3n[nH]c4ncc(-c5c[nH]c6ccccc56)cc34)nc12 [Cpd 39, 5-(1H-indol-3-yl)-3-(4-methoxymethyl-1H-benzoimidazol-2-yl)-1H-pyrazolo[3,4-b]pyridine] | > 100 | 0.026 | 1.68 | 0.0358 | > 100 | 0.266 | 1.21 | > 1 | – | –
8 | COCc1cccc2[nH]c(-c3n[nH]c4ncc(-c5cncc(CNC(C)(C)C)c5)cc34)nc12 [Cpd 53, tert-butyl-{5-[3-(4-methoxymethyl-1H-benzoimidazol-2-yl)-1H-pyrazolo[3,4-b]pyridin-5-yl]-pyridin-3-ylmethyl}-amine] | > 10 | 0.391 | 0.709 | 0.328 | > 1 | 0.037 | 0.104 | 1.52 | – | –
9 | COCc1cccc2[nH]c(-c3n[nH]c4ncc(-c5cnccc5C)cc34)nc12 [Cpd 57, 3-(4-methoxymethyl-1H-benzoimidazol-2-yl)-5-(4-methyl-pyridin-3-yl)-1H-pyrazolo[3,4-b]pyridine] | > 100 | 0.0687 | 0.685 | 0.119 | > 10 | > 1 | 0.0663 | > 1 | – | –
10 | COCc1cccc2[nH]c(-c3n[nH]c4ncc(-c5cncc(CN6CCOCC6)c5C)cc34)nc12 [Cpd 60, 3-(4-methoxymethyl-1H-benzoimidazol-2-yl)-5-(4-methyl-5-morpholin-4-ylmethyl-pyridin-3-yl)-1H-pyrazolo[3,4-b]pyridine] | ~100 | 0.0395 | 1.6 | 0.0111 | > 10 | 3.05 | 0.471 | ~1 | – | –
11 | COCc1cccc2[nH]c(-c3n[nH]c4ncc(-c5cncc(CN(C)C)c5C)cc34)nc12 [Cpd 61, {5-[3-(4-methoxymethyl-1H-benzoimidazol-2-yl)-1H-pyrazolo[3,4-b]pyridin-5-yl]-4-methyl-pyridin-3-ylmethyl}-dimethyl-amine] | > 10 | 0.0992 | 1.83 | 0.219 | > 10 | 4.11 | 0.283 | 0.321 | – | –
12 | CNCc1cncc(-c2cnc3[nH]nc(-c4nc5c(COC)cccc5[nH]4)c3c2)c1C [Cpd 62, {5-[3-(4-methoxymethyl-1H-benzoimidazol-2-yl)-1H-pyrazolo[3,4-b]pyridin-5-yl]-4-methyl-pyridin-3-ylmethyl}-methyl-amine] | > 100 | 0.229 | 1.19 | 0.0623 | ~10 | 2.79 | 0.0681 | 1.75 | – | –
13 | COCc1cccc2[nH]c(-c3n[nH]c4ncc(-c5ccc(OC)nc5)cc34)nc12 [Cpd 63, 3-(4-methoxymethyl-1H-benzoimidazol-2-yl)-5-(6-methoxy-pyridin-3-yl)-1H-pyrazolo[3,4-b]pyridine] | > 100 | 0.12 | 9.96 | 0.0763 | > 100 | 0.319 | > 10 | ~100 | – | –
14 | COCc1cccc2[nH]c(-c3n[nH]c4ncc(-c5ccc(N6CCOCC6)nc5)cc34)nc12 [Cpd 66, 3-(4-methoxymethyl-1H-benzoimidazol-2-yl)-5-(6-morpholin-4-yl-pyridin-3-yl)-1H-pyrazolo[3,4-b]pyridine] | > 100 | 0.0204 | 1.08 | 0.0044 | > 100 | 0.121 | > 100 | > 1 | – | –
15 | COCc1cccc2[nH]c(-c3n[nH]c4ncc(-c5ccc(N6CCN(C(=O)OC(C)(C)C)CC6)nc5)cc34)nc12 [Cpd 67, 4-{5-[3-(4-methoxymethyl-1H-benzoimidazol-2-yl)-1H-pyrazolo[3,4-b]pyridin-5-yl]-pyridin-2-yl}-piperazine-1-carboxylic acid tert-butyl ester] | > 100 | 0.0245 | 1.98 | 0.0109 | > 100 | > 10 | > 10 | > 100 | – | –
16 | COCc1cccc2[nH]c(-c3n[nH]c4ncc(-c5cncnc5)cc34)nc12 [Cpd 68, 3-(4-methoxymethyl-1H-benzoimidazol-2-yl)-5-pyrimidin-5-yl-1H-pyrazolo[3,4-b]pyridine] | > 100 | 0.325 | 9.91 | 0.16 | > 100 | 0.115 | 1.28 | ~10 | – | –
17 | CCOC(=O)c1cncc(-c2cnc3[nH]nc(-c4nc5c(COC)cccc5[nH]4)c3c2)c1 [Cpd 70, 5-[3-(4-methoxymethyl-1H-benzoimidazol-2-yl)-1H-pyrazolo[3,4-b]pyridin-5-yl]-nicotinic acid ethyl ester] | > 100 | 0.0554 | 1.94 | 0.0387 | > 100 | ~100 | > 100 | ~100 | – | –
